Structures can show the parent of a compound that is named as a salt.
What was measured:
[1] = target: T1, reuptake of noradrenaline (NA) in synaptosomes (Rattus norvegicus, UniProt Q9WTR4); assay: Inhibition of noradrenaline reuptake in synaptosomes; type: biochemical
T1 construct: in synaptosomes as described in WO 97/16451; from tissue
Procedure: (§1) Compounds were tested for their ability to inhibit the reuptake of the monoamine neurotransmitters dopamine (DA) noradrenaline (NA) and serotonine (5-HT) in synaptosomes as described in WO 97/16451.
(§2) The test values are given as IC50 (the concentration (μM) of the test substance which inhibits the specific binding of ^3H-DA, ^3H-NA, or ^3H-5-HT by 50%).

[2] = target: T2, reuptake of dopamine (DA) in synaptosomes (Rattus norvegicus, UniProt P23977); assay: Inhibition of dopamine reuptake in synaptosomes; type: biochemical
T2 construct: in synaptosomes as described in WO 97/16451; from tissue
Procedure: as §1, §2

[3] = target: T3, reuptake of serotonine (5-HT) in synaptosomes (Rattus norvegicus, UniProt P31652); assay: Inhibition of serotonin reuptake in synaptosomes; type: biochemical
T3 construct: in synaptosomes as described in WO 97/16451; from tissue
Procedure: as §1, §2

T1 sequence (Q9WTR4 1-597): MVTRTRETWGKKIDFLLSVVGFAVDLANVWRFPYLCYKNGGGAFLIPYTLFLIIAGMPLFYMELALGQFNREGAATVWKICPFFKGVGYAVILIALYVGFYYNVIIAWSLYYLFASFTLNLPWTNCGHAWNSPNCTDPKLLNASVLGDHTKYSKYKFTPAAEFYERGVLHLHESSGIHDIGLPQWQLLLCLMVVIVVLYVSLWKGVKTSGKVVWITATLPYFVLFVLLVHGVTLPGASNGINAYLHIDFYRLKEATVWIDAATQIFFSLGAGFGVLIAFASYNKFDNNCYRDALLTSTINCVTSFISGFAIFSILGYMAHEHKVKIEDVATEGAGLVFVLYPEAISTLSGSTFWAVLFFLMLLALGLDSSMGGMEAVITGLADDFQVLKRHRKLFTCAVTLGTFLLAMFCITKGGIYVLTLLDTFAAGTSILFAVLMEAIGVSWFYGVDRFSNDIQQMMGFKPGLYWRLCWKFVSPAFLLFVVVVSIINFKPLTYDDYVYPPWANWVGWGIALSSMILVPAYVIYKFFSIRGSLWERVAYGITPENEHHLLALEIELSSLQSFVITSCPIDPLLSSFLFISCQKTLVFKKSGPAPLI
T2 sequence (P23977 whole entry): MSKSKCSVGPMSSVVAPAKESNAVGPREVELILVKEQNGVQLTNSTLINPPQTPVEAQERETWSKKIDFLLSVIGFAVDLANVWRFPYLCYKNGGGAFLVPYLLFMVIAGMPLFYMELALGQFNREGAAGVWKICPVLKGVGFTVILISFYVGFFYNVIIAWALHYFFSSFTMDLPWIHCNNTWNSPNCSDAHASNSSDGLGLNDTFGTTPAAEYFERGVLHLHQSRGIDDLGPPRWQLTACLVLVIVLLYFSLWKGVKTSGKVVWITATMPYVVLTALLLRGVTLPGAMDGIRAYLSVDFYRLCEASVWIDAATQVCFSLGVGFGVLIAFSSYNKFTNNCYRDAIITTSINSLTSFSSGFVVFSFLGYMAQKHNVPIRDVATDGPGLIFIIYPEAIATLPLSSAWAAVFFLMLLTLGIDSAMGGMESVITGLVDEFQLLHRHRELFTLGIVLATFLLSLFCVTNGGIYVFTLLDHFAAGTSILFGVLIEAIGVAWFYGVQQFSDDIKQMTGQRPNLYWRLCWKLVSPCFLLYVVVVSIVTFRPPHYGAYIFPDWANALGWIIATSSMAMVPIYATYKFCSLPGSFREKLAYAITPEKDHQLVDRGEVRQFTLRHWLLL
T3 sequence (P31652 whole entry): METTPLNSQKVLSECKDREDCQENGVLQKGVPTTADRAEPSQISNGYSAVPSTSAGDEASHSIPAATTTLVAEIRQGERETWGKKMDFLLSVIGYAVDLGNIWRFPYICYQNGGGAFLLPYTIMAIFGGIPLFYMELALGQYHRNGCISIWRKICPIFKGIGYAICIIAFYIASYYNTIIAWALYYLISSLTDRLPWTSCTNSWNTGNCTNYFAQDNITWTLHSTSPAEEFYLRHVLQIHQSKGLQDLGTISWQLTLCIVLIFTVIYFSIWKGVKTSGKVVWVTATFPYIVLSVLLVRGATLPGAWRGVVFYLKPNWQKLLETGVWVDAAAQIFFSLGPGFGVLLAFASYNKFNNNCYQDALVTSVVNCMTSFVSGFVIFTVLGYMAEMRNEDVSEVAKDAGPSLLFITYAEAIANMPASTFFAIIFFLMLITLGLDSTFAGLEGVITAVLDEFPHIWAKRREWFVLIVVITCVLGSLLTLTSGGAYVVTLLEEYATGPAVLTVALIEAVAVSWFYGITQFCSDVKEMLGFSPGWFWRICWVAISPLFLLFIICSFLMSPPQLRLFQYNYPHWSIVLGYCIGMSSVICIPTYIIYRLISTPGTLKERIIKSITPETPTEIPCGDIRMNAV

Row | SMILES | melting point | IC50 [1] | IC50 [2] | IC50 [3]
1 | NC1CCN(c2ccc(Cl)c(Cl)c2)CC1 (as salt: hydrochloric acid salt) [1st compound of method A, 1-(3,4-Dichloro-phenyl)-piperidin-4-ylamine] | > 250 °C (dec.) | – | – | –
2 | CNC1CCN(c2ccc(Cl)c(Cl)c2)CC1 (as salt: hydrochloric acid salt) [1st compound of method B, [1-(3,4-Dichloro-phenyl)-piperidin-4-yl]-methyl-amine] | 240 to 244 °C | – | – | –
3 | NC1CCN(c2ccc(Cl)c(Cl)c2)CC1 [1st compound of method A, 1-(3,4-Dichloro-phenyl)-piperidin-4-ylamine] | – | 150 nM | 400 nM | 27 nM
4 | CNC1CCN(c2ccc(Cl)c(Cl)c2)CC1 [1st compound of method B, [1-(3,4-Dichloro-phenyl)-piperidin-4-yl]-methyl-amine] | – | 200 nM | 380 nM | 27 nM

Reference: US20090124663A1, “Novel n-phenyl-piperidine derivatives and their use as monoamine neurotransmitter re-uptake inhibitors” (NeuroSearch A/S, priority 2005, published 2009)
